Experimental data taken from the NIST ThermoML archive (doi:10.1016/j.jct.2016.01.026).

Test: osmotic coefficient (dimensionless); mn = molality of the nth substance listed, in mol/kg
Details: 323.15 K, 100 kPa, Liquid, Knauer K-7000 vapor pressure osmometer (VPO)

CCC[N+]1(C)CCCCC1.O=S(=O)([O-])C(F)(F)F [1-methyl-1-propylpiperidinium triflate] + CC(C)O
Details | osmotic coefficient
m1 = 0.0801 | 0.897
m1 = 0.1937 | 0.743
m1 = 0.3155 | 0.645
m1 = 0.4021 | 0.587
m1 = 0.5062 | 0.545
m1 = 0.5964 | 0.516
m1 = 0.7001 | 0.491
m1 = 0.7943 | 0.466
m1 = 0.9894 | 0.443
m1 = 1.268 | 0.422

CCC[N+]1(C)CCCCC1.O=S(=O)([O-])C(F)(F)F [1-methyl-1-propylpiperidinium triflate] + CCC(C)O
Details | osmotic coefficient
m1 = 0.0525 | 0.851
m1 = 0.081 | 0.769
m1 = 0.0996 | 0.701
m1 = 0.1561 | 0.608
m1 = 0.1983 | 0.572
m1 = 0.2451 | 0.528
m1 = 0.304 | 0.498
m1 = 0.3569 | 0.477
m1 = 0.4029 | 0.457
m1 = 0.498 | 0.432
m1 = 0.5936 | 0.419
m1 = 0.7108 | 0.405

CCC[N+]1(C)CCCCC1.O=S(=O)([O-])C(F)(F)F [1-methyl-1-propylpiperidinium triflate] + CCCCCO
Details | osmotic coefficient
m1 = 0.0415 | 0.757
m1 = 0.0616 | 0.593
m1 = 0.0823 | 0.542
m1 = 0.1025 | 0.521
m1 = 0.1211 | 0.502
m1 = 0.1427 | 0.48
m1 = 0.1632 | 0.472
m1 = 0.1816 | 0.465
m1 = 0.2018 | 0.451
m1 = 0.2209 | 0.441
m1 = 0.2407 | 0.431
m1 = 0.2643 | 0.418

CCC[N+]1(C)CCCCC1.O=S(=O)([O-])C(F)(F)F [1-methyl-1-propylpiperidinium triflate] + CCCCO
Details | osmotic coefficient
m1 = 0.053 | 0.781
m1 = 0.0791 | 0.706
m1 = 0.0996 | 0.657
m1 = 0.1455 | 0.604
m1 = 0.2006 | 0.559
m1 = 0.25 | 0.519
m1 = 0.3019 | 0.491
m1 = 0.355 | 0.467
m1 = 0.4011 | 0.453
m1 = 0.4998 | 0.417
m1 = 0.5953 | 0.403
m1 = 0.7001 | 0.387
m1 = 0.78 | 0.379

CCC[N+]1(C)CCCCC1.O=S(=O)([O-])C(F)(F)F [1-methyl-1-propylpiperidinium triflate] + CCCO
Details | osmotic coefficient
m1 = 0.0866 | 0.825
m1 = 0.1046 | 0.769
m1 = 0.1966 | 0.661
m1 = 0.2936 | 0.585
m1 = 0.3928 | 0.521
m1 = 0.5005 | 0.483
m1 = 0.6023 | 0.468
m1 = 0.7009 | 0.452
m1 = 0.8047 | 0.438
m1 = 1.008 | 0.418
m1 = 1.195 | 0.398
m1 = 1.422 | 0.379
